# Test results published in patent US12043617B2, “4-(N-methyl) aminopiperidine myricetin derivative containing dithiocarbamate, preparation method and application” (Guizhou University, priority 2019, dated 2024).
# System: SMMC-7721 cells
# Experiment: MTT colorimetry, inhibition of hepatocellular carcinoma SMMC-7721 cell activity
# Type: cell-based
# Conditions: 48 hours
# Experimental: Test for Inhibition of Cancer Cell Activity by Compound of Embodiment 19 (Taking Hepatocellular Carcinoma SMMC-7721 Cells as an embodiment):
# SMMC-7721 cells are cultured in DMEM high sugar medium containing 10% fetal bovine serum in a saturated humidity incubator at 37° C. and 5% CO2. The culture medium is changed every two days and passaged every 3-4 days. The drug is prepared as 1 mmol/L and 10 mmol/L storage solution using DMSO as solvent, when used, the concentration is diluted into 1 μmol/L and 10 μmol/L with culture medium, using DMSO as negative control group and gemcitabine as positive control group to act on cells in logarithmic growth phase.
# Cells in logarithmic growth phase are digested with 0.025% pancreatin, and then digested with DMEM high sugar medium containing 10% fetal bovine serum. After centrifugation, the cells are suspended in DMEM high sugar medium containing 10% fetal bovine serum. Take a 96-well plate and add 200 μL of sterile water seal to each hole around the plate to ensure saturated humidity in the experiment. In the middle six rows, 100 μL of cell suspension are added respectively, and the cell concentration is about 3.5×10^4 cells/mL. The last row is blank control group, and the same volume of complete culture medium is added. In 37° C., 5% CO2 saturated humidity incubator culture for 24 hours, cells completely adhere to the wall, remove the culture medium, add complete culture medium containing different drugs, 200 μL per hole. The blank control group is added with 200 μL of complete culture medium, and the culture is continued. After 24 hours, the drug effect is observed and photographed under an inverted microscope. After 48 hours, the drug effect is also observed and photographed under an inverted microscope. Then the supernatant is removed. 100 μL of 0.5 mg/mL MTT solution is added to each well. After 4 hours of continuous culture, purple crystal formazan is generated. 100 μL of 10% SDS is added to each well. After 12 hours of culture in an incubator at 37° C., the OD value is measured with an enzyme reader at A571 wavelength. Repeat 6 wells for each sample concentration, and calculate the inhibition rate by taking the average value.
SMILES,Inhibition Rate (%) (1 μmol/L),Inhibition Rate (%) (10 μmol/L),"inhibition at 1 µM (Homo sapiens, 1 μmol/L, read-out: Inhibition Rate (%)) [%]","inhibition at 10 µM (Homo sapiens, 10 μmol/L, read-out: Inhibition Rate (%)) [%]"
"COc1cc(OC)c2c(=O)c(OCCCCN(C)C3CCN(C(=S)SCc4ccc([N+](=O)[O-])cc4)CC3)c(-c3cc(OC)c(OC)c(OC)c3)oc2c1 [Compound A16, 4-nitrobenzyl-4-((4-((5,7-dimethoxy-4-oxo-2-(3,4,5-trimethoxyphenyl)-4H-benzopyran-3-yl)oxy)butyl) (methyl)amino) piperidine-1-dithiocarboxylic acid]",26.84 ± 4.36,99.85 ± 0.71,–,–
"COc1cc(OC)c2c(=O)c(OCCCN(C)C3CCN(C(=S)SCc4ccc(Cl)nc4)CC3)c(-c3cc(OC)c(OC)c(OC)c3)oc2c1 [Compound A9, (6-chloropyridine-3-yl) methyl 4-((3-((5,7-dimethoxy-4-oxo-2-(3,4,5-trimethoxyphenyl)-4H-benzopyran-3-yl)oxygen)propyl) (methyl)amino) piperidine-1-dithiocarboxylic acid]",18.83 ± 3.15,99.76 ± 1.06,–,–
"COc1cc(OC)c2c(=O)c(OCCCCN(C)C3CCN(C(=S)SCc4ccccc4F)CC3)c(-c3cc(OC)c(OC)c(OC)c3)oc2c1 [Compound A13, 2-fluorobenzyl-4-((4-((5,7-dimethoxy-4-oxo-2-(3,4,5-trimethoxyphenyl)-4H-benzopyran-3-yl)oxy)butyl) (methyl)amino) piperidine-1-dithiocarboxylic acid]",46.96 ± 4.65,99.76 ± 1.06,–,–
"COc1cc(OC)c2c(=O)c(OCCCCN(C)C3CCN(C(=S)SCc4cccc(C)c4)CC3)c(-c3cc(OC)c(OC)c(OC)c3)oc2c1 [Compound A14, 3-methylbenzyl-4-((4-((5,7-dimethoxy-4-oxo-2-(3,4,5-trimethoxyphenyl)-4H-benzopyran-3-yl)oxy)butyl) (methyl)amino) piperidine-1-dithiocarboxylic acid]",96.65 ± 2.61,100 ± 0.42,–,–
"COc1cc(OC)c2c(=O)c(OCCCCN(C)C3CCN(C(=S)SCc4ccc(Cl)cc4Cl)CC3)c(-c3cc(OC)c(OC)c(OC)c3)oc2c1 [Compound A12, 2,4-dichlorobenzyl-4-((4-((5,7-dimethoxy-4-oxo-2-(3,4,5-trimethoxyphenyl)-4H-benzopyran-3-yl)oxy)butyl) (methyl)amino) piperidine-1-dithiocarboxylic acid]",98.09 ± 2.68,99.28 ± 1.04,–,–
"COc1cc(OC)c2c(=O)c(OCCCN(C)C3CCN(C(=S)SCc4ccccc4Cl)CC3)c(-c3cc(OC)c(OC)c(OC)c3)oc2c1 [Compound A2, 2-chlorobenzyl-4-((3-((5,7-dimethoxy-4-oxo-2-(3,4,5-trimethoxyphenyl)-4H-chromene-3-yl)oxy)propyl)(methyl)amino)piperidine-1-dithiocarboxylic acid]",25.44 ± 3.25,96.13 ± 3.42,–,–
"COc1cc(OC)c2c(=O)c(OCCCCN(C)C3CCN(C(=S)SCc4ccc(Cl)cc4)CC3)c(-c3cc(OC)c(OC)c(OC)c3)oc2c1 [Compound A10, 4-chlorobenzyl-4-((4-((5,7-dimethoxy-4-oxo-2-(3,4,5-trimethoxyphenyl)-4H-benzopyran-3-yl)oxy)butyl) (methyl)amino) piperidine-1-dithiocarboxylic acid]",92.83 ± 3.84,97.85 ± 3.35,–,–
"COc1cc(OC)c2c(=O)c(OCCCCN(C)C3CCN(C(=S)SCc4cccnc4)CC3)c(-c3cc(OC)c(OC)c(OC)c3)oc2c1 [Compound A17, pyridine-3-ylmethyl-4-((4-((5,7-dimethoxy-4-oxo-2-(3,4,5-trimethoxyphenyl)-4H-benzopyran-3-yl)oxy)butyl) (methyl)amino) piperidine-1-dithiocarboxylic acid]",68.42 ± 2.35,100 ± 1.31,–,–
"COc1cc(OC)c2c(=O)c(OCCCN(C)C3CCN(C(=S)SCc4ccc(Cl)cc4)CC3)c(-c3cc(OC)c(OC)c(OC)c3)oc2c1 [Compound A1, 4-chlorobenzyl 4-((3-((5,7-dimethoxy-4-oxo-2-(3,4,5-trimethoxyphenyl)-4H-chromene-3-yl)oxy)propyl)(methyl)amino)piperidine-1-dithiocarboxylic acid]",21.82 ± 2.34,95.51 ± 4.16,–,–
"COc1cc(OC)c2c(=O)c(OCCCCN(C)C3CCN(C(=S)SCc4ccc(Cl)nc4)CC3)c(-c3cc(OC)c(OC)c(OC)c3)oc2c1 [Compound A18, (6-chloropyridine-3-yl) methyl-4-((4-((5,7-dimethoxy-4-oxo-2-(3,4,5-trimethoxyphenyl)-4H-benzopyran-3-yl)oxy)butyl) (methyl)amino) piperidine-1-dithiocarboxylic acid]",33.58 ± 1.67,100 ± 0.42,–,–
"COc1cc(OC)c2c(=O)c(OCCCN(C)C3CCN(C(=S)SCc4ccccc4F)CC3)c(-c3cc(OC)c(OC)c(OC)c3)oc2c1 [Compound A4, 2-fluorobenzyl 4-((3-((5,7-dimethoxy-4-oxo-2-(3,4,5-trimethoxyphenyl)-4H-chromene-3-yl)oxy)propyl)(methyl)amino) piperidine-1-dithiocarboxylic acid]",20.66 ± 1.21,99.85 ± 1.64,–,–
"COc1cc(OC)c2c(=O)c(OCCCN(C)C3CCN(C(=S)SCc4ccc([N+](=O)[O-])cc4)CC3)c(-c3cc(OC)c(OC)c(OC)c3)oc2c1 [Compound A7, 4-nitrobenzyl 4-((3-((5,7-dimethoxy-4-oxo-2-(3,4,5-trimethoxyphenyl)-4H-chromene-3-yl)oxy)propyl) (methyl)amino) piperidine-1-dithiocarboxylic acid]",27.70 ± 1.09,99.35 ± 3.48,–,–
"Nc1ccn([C@@H]2O[C@H](CO)[C@@H](O)C2(F)F)c(=O)n1 [Gencitabine, gemcitabine, reference compound]",–,–,55.7 ± 2.26,63.5 ± 2.18
"COc1cc(OC)c2c(=O)c(OCCCCN(C)C3CCN(C(=S)SCc4ccccc4C)CC3)c(-c3cc(OC)c(OC)c(OC)c3)oc2c1 [Compound A15, 2-methylbenzyl-4-((4-((5,7-dimethoxy-4-oxo-2-(3,4,5-trimethoxyphenyl)-4H-benzopyran-3-yl)oxy)butyl) (methyl)amino) piperidine-1-dithiocarboxylic acid]",16.38 ± 3.82,99.52 ± 1.12,–,–
"COc1cc(OC)c2c(=O)c(OCCCN(C)C3CCN(C(=S)SCc4cccc(C)c4)CC3)c(-c3cc(OC)c(OC)c(OC)c3)oc2c1 [Compound A5, 3-methylbenzyl 4-((3-((5,7-dimethoxy-4-oxo-2-(3,4,5-trimethoxyphenyl)-4H-chromene-3-yl)oxy)propyl) (methyl)amino) piperidine-1-dithiocarboxylic acid]",12.32 ± 2.39,97.52 ± 1.12,–,–
"COc1cc(OC)c2c(=O)c(OCCCN(C)C3CCN(C(=S)SCc4ccccc4C)CC3)c(-c3cc(OC)c(OC)c(OC)c3)oc2c1 [Compound A6, 2-methylbenzyl 4-((3-((5,7-dimethoxy-4-oxo-2-(3,4,5-trimethoxyphenyl)-4H-chromene-3-yl)oxy)propyl) (methyl)amino) piperidine-1-dithiocarboxylic acid]",34.32 ± 2.69,98.12 ± 2.76,–,–
"COc1cc(OC)c2c(=O)c(OCCCCN(C)C3CCN(C(=S)SCc4ccccc4Cl)CC3)c(-c3cc(OC)c(OC)c(OC)c3)oc2c1 [Compound A11, 2-chlorobenzyl-4-((4-((5,7-dimethoxy-4-oxo-2-(3,4,5-trimethoxyphenyl)-4H-benzopyran-3-yl)oxy)butyl) (methyl)amino) piperidine-1-dithiocarboxylic acid]",91.00 ± 2.86,99.85 ± 1.64,–,–
"COc1cc(OC)c2c(=O)c(OCCCN(C)C3CCN(C(=S)SCc4cccnc4)CC3)c(-c3cc(OC)c(OC)c(OC)c3)oc2c1 [Compound A8, pyridine-3-ylmethyl 4-((3-((5,7-dimethoxy-4-oxo-2-(3,4,5-trimethoxyphenyl)-4H-chromene-3-yl)oxy)propyl) (methyl)amino) piperidine-1-dithiocarboxylic acid]",15.48 ± 2.74,99.85 ± 1.64,–,–
